According to patent publication US12234245B2, “Sulfonimidamide compounds as inhibitors of interleukin-1 activity” (Genentech, Inc., priority 2018, dated 2025):
Like-named read-outs stand apart in the source and are kept apart here.

Assays:
Assay type in all cases: cell-based
[1] = system: PBMCs; experiment: CTG (CellTiter-Glo) viability assay in PBMCs; conditions: LPS and nigericin stimulated
Procedure: (§1) Human peripheral blood mononuclear cells (PBMCs), consisting of lymphocytes (T, B and NK cells), monocytes and dendritic cells, were freshly isolated from human peripheral blood from healthy donors. Cells were obtained through an IRB approved donor program by iXCells Biotechnologies where all the donors were tested for bacterial and viral infections. Cells were purified from peripheral blood using ficoll gradient centrifugation.
(§2) Fresh or cryopreserved PMBCs were seeded in V-bottom 96-well plate at 0.5-1×10^5 cells per well and incubated overnight at 37° C. with 5% CO2 in RPMI 1640 medium with GlutaMAX supplement, 4.5 g/L D-glucose, 10% Fetal Bovine Serum (FBS), […] Sodium Pyruvate, 1% Penicillin/Streptomycin, 10 mM HEPES and 0.05 mM of β-mercaptoethanol. Freshly isolated or cryopreserved KCs cells were seeded in flat-bottom 96-well plates at 0.6-1.5×10^5 cells/well and incubated overnight at 37° C. 5% CO2 in RPMI 1640 Medium with GlutaMAX supplement, FBS, 1% Penicillin/Streptomycin and 10 mM HEPES. The following day, the cells were primed with 100 ng/mL of lipopolysaccharides (LPS; Sigma Aldrich) in FBS-free RPMI 1640 for 3 h. After the priming step, the media was removed and PBMCs were pre-incubated with serial concentrations of test compounds (0.00017-10 uM) or vehicle (DMSO) for 30 min in FBS-free media prior to addition of the NLRP3 activator. Cells were then stimulated with 10 uM Nigericin (Sigma Aldrich; InvivoGen) for 1.5 h. Plates were centrifuged at 1,500 rpm for 3 minutes to pellet cells and supernatant was transferred into new plates for subsequent experiments.
(§3) Viability of compound treated cells was measured using CellTiter-Glo® assay (Promega, Madison, Wis.) that measures the ATP content of cells which is proportional to the number of live cells within a well. This is a counter-screen to establish that the reduction of IL-1β levels in LPS and nigericin stimulated and compound treated cells is not due to cytotoxicity, but rather through the inhibition of the inflammasome pathway. Compounds inhibiting NRLP3 inflammasome activation ultimately increase the viability of LPS and nigericin stimulated cells by blocking NLRP3 mediated pyroptosis that would otherwise lead to cell lysis.

[2] = system: Kupffer cells; experiment: CTG (CellTiter-Glo) viability assay in Kupffer cells; conditions: human Kupffer cells
Procedure: (§4) Human Kupffer cells (KCs), specialized liver macrophages residing in […], were obtained by gradient isolation from liver specimens harvested post-mortem by Samsara Sciences. Cells were obtained through an IRB approved donor program by Samsara Sciences and all donors tested negative for bacterial and viral infections.
as §2, §3

[3] = target: T1, NLRP3 inflammasome (Homo sapiens, UniProt Q96P20); experiment: NLRP3 inflammasome activation assay in PBMCs, IL-1β release (ELISA / HTRF); design: were freshly isolated from human peripheral blood from healthy donors; StemCells Technologies; host or cells: primary human PBMCs, LPS-primed, nigericin-stimulated; conditions: LPS primed
In short: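 Human PBMCs primed with 100 ng/mL LPS for 3 h, pre-treated with compound for 30 min (0.00017–10 µM, or from 40 µM in 2-fold 20-point series), then stimulated with 10 µM nigericin for 1.5 h at 37 °C. Released IL-1β in supernatant quantified by ELISA or by HTRF (665/620 ratio, overnight RT).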

[4] = target: T1, NLRP3 inflammasome; experiment: NLRP3 inflammasome activation assay in Kupffer cells, IL-1β release; design: were freshly isolated from human peripheral blood from healthy donors; StemCells Technologies; host or cells: primary human PBMCs, LPS-primed, nigericin-stimulated; conditions: LPS primed, nigericin
Source text: Some of the following assays were used to determine the inhibitory activity of the compounds on the NLRP3 inflammasome using a common inflammasome activation stimuli—nigericin.
as §4, §2
(§5) For ELISA assays cells were seeded into 96-well plates. Post study, supernatants were removed and the levels of mature IL-1β, IL18 and TNFα (Quantikine ELISA, R&D systems) were measured in cell conditioned media by ELISA according to manufacturer's instructions.

[5] = system: TNFα; experiment: TNFα counter-screen in LPS and nigericin stimulated PBMCs; conditions: human PBMCs
Procedure: as §1, §2, §5
(§6) TNFα levels of LPS and nigericin stimulated cells were measured by HTRF assay (Cisbio, Bedford, MA). […] Measuring TNFalpha production also serves as a technical counter-screen to eliminate compounds that interfere with the HTRF reagents. Thus compounds that inhibit both IL-1β and TNFα levels are triaged for either being non-selective for inflammasome or interfering with the HTRF readout.

[6] = target: T1, NLRP3 inflammasome; experiment: THP-1 ASC-GFP speck assay; design: host or cells: THP-1 ASC-GFP cells, PMA-differentiated, LPS-primed, nigericin-stimulated; conditions: THP-1 ASC-GFP cells, PMA differentiated, LPS primed, 10 μM nigericin; read-out: THP1 ASC Speck IC50
In short: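 PMA-differentiated (500 ng/ml, overnight) THP-1 ASC-GFP cells primed with 1 μg/mL LPS for 3 h, preincubated 30 min with compound (top 40 μM, 2-fold, 20 points), then stimulated with 10 μM nigericin for 90 min at 37 °C. After fixation and Hoechst staining, imaging gave the percentage of cells bearing a GFP ASC speck.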

[7] = system: TNFα; experiment: TNFα counter-screen in LPS and nigericin stimulated Kupffer cells; conditions: human Kupffer cells
Procedure: as §4, §2, §5, §6

[8] = 10 uM nigericin, read-out: PBMC IL-1 β IC50
[9] = 10 μM nigericin, read-out: PBMC IL-1β IC50
[10] = human PBMCs, read-out: PBMC CTG IC50
[11] = PBMC, read-out: PBMC TNF α IC50

T1 sequence (Q96P20 whole entry): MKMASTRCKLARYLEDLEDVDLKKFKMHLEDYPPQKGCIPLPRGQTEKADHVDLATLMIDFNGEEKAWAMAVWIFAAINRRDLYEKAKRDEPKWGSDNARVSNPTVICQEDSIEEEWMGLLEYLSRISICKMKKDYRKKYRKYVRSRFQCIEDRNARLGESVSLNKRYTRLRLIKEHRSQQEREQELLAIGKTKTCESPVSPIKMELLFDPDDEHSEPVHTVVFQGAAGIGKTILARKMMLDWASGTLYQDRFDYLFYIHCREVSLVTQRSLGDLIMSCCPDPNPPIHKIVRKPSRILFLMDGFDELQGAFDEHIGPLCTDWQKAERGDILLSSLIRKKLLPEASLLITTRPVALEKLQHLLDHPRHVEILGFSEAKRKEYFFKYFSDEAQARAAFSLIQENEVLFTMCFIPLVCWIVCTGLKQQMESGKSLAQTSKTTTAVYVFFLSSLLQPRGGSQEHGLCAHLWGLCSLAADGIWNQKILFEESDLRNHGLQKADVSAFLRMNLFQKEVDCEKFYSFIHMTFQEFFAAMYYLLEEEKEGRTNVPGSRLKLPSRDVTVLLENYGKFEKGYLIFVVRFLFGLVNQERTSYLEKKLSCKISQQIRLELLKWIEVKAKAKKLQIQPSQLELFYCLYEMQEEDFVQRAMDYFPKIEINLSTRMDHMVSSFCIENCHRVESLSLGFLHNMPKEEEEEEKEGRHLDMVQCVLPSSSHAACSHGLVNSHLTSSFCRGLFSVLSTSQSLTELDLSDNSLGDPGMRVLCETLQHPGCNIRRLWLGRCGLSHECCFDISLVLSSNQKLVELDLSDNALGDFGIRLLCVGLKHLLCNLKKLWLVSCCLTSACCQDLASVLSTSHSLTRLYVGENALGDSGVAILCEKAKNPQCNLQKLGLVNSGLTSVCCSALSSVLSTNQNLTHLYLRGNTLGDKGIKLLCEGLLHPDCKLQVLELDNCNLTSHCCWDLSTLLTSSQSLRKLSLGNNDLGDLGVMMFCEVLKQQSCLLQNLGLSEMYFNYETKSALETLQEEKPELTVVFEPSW

Row | SMILES | IC50 [3, 8] [µM] | IC50 [3, 9] [µM] | IC50 [6] [µM] | IC50 ([1]; Homo sapiens, PBMC) [µM] | IC50 ([5]; PBMC) [µM] | IC50 [1, 10] [µM] | IC50 ([5]; read-out: PBMC TNF α IC50) [µM] | also measured
1 | NS(=O)(=NC(=O)Nc1c2c(cc3c1CCC3)CCC2)c1cnn2c1OCCC2 (racemic) [Example 1, N′-((1,2,3,5,6,7-hexahydro-s-indacen-4-yl)carbamoyl)-6,7-dihydro-5H-pyrazolo[5,1-b][1,3]oxazine-3-sulfonimidamide] |  | 0.082 |  | 0.3 |  |  |  | IC50 [2]: 0.103 µM; IC50 ([4]; read-out: Kupffer IL-1 β IC50): 0.123 µM
2 | NS(=O)(=NC(=O)Nc1c2c(cc3c1CCC3)CCC2)c1cnn2c1OCCC2 (single isomer, unassigned) [Example 13] |  | 0.035 | 0.075 |  | > 10 | 0.008 |  | 
3 | NS(=O)(=NC(=O)Nc1c2c(cc3c1CCC3)CCC2)c1cnn2c1OCCC2 (single isomer, unassigned) [Example 14] |  | 1.91 | 1.2 |  |  | 0.001 |  | IC50 ([5]; read-out: PBMC TNFα IC50): > 10 µM
4 | COC1COc2c(S(N)(=O)=NC(=O)Nc3c4c(cc5c3CCC5)CCC4)cnn2C1 (single isomer, unassigned) [Example 20] |  | 0.004 |  |  |  | 0.019 |  | IC50 ([5]; read-out: PBMC TNFα IC50): > 10 µM; IC50 [2]: < 0.1 µM; IC50 [7]: > 10 µM; IC50 ([4]; read-out: Kupffer IL-1 β IC50): < 0.1 µM
5 | CNC1COc2c(S(N)(=O)=NC(=O)Nc3c(C(C)C)cc(F)cc3C(C)C)cnn2C1 (single isomer, unassigned) [Example 27] |  | 0.12 | 0.2 | > 10 | > 10 |  |  | 
6 | COC1COc2c(S(N)(=O)=NC(=O)Nc3c4c(c(F)c5c3CCC5)CCC4)cnn2C1 (single isomer, unassigned) [Example 32] |  | 0.013 | 0.045 |  |  | 0.005 |  | IC50 ([5]; read-out: PBMC TNFα IC50): > 10 µM
7 | CO[C@@H]1COc2c(S(=N)(=O)NC(=O)Nc3c(C(C)C)cc(F)cc3C(C)C)cnn2C1 (stereo partly drawn) [drawing 671] | 1 to 10 |  |  |  |  | < 0.1 | > 10 | 
8 | CO[C@@H]1COc2c(S(=N)(=O)NC(=O)Nc3c(C(C)C)cc(F)cc3C(C)C)cnn2C1 (stereo partly drawn) [drawing 672] | 0.1 to 1 |  |  |  |  | 0.1 to 1 | > 10 | 
9 | CO[C@@H]1COc2c(S(=N)(=O)NC(=O)Nc3c4c(c(F)c5c3CCC5)CCC4)cnn2C1 (stereo partly drawn) [drawing 679] | 0.1 to 1 |  |  |  |  | < 0.1 | > 10 | 
10 | CO[C@@H]1COc2c(S(=N)(=O)NC(=O)Nc3c4c(c(F)c5c3CCC5)CCC4)cnn2C1 (stereo partly drawn) [drawing 680] | < 0.1 |  |  |  |  | < 0.1 | > 10 | 
11 | CN(C)[C@@H]1COc2c(S(=N)(=O)NC(=O)Nc3c4c(cc5c3CCC5)CCC4)cnn2C1 (stereo partly drawn) [drawing 681] | 0.1 to 1 |  |  | < 0.1 |  |  |  | IC50 [5, 11]: > 10 µM

The next lines start with results.

Row | IC50 [3, 8] [µM] | IC50 [3, 9] [µM] | IC50 [6] [µM] | SMILES | IC50 ([1]; Homo sapiens, PBMC) [µM] | IC50 ([5]; PBMC) [µM] | IC50 [1, 10] [µM] | IC50 ([5]; read-out: PBMC TNF α IC50) [µM] | also measured
12 | < 0.1 |  |  | NS(=O)(=NC(=O)Nc1c2c(cc3c1CCC3)CCC2)c1cnn2c1OCCC2 (stereo not drawn) | 0.1 to 1 |  |  |  | IC50 [2]: 0.1 to 1 µM; IC50 ([4]; read-out: Kupffer IL-β B IC50): 0.1 to 1 µM
13 |  | 0.094 | 0.14 | NS(=O)(=NC(=O)Nc1c2c(c(F)c3c1CCC3)CCC2)c1cnn2c1OCC2 (racemic) [Example 29, N′-((8-fluoro-1,2,3,5,6,7-hexahydro-s-indacen-4-yl)carbamoyl)-2,3-dihydropyrazolo[5,1-b]oxazole-7-sulfonimidamide] | 3.75 | > 10 |  |  | 
14 |  | 0.067 | 0.36 | NS(=O)(=NC(=O)Nc1c2c(c(F)c3c1CCC3)CCC2)c1cnn2c1OCCCC2 (racemic) [Example 30, N′-((8-fluoro-1,2,3,5,6,7-hexahydro-s-indacen-4-yl)carbamoyl)-5,6,7,8-tetrahydropyrazolo[5,1-b][1,3]oxazepine-3-sulfonimidamide] | > 10 | > 10 |  |  | 
15 |  | 1.12 | 0.64 | COC1COc2c(S(N)(=O)=NC(=O)Nc3c4c(cc5c3CCC5)CCC4)cnn2C1 (single isomer, unassigned) [Example 19] |  | > 10 | 0.86 |  | 
16 |  | 0.0076 | 0.0097 | CNC1COc2c(S(N)(=O)=NC(=O)Nc3c4c(cc5c3CCC5)CCC4)cnn2C1 (single isomer, unassigned) [Example 26] |  | > 10 | 0.002 |  | IC50 [2]: 0.021 µM; IC50 [7]: > 10 µM; IC50 ([4]; read-out: Kupffer IL-1 β IC50): 0.02 µM
17 |  | 0.15 | 0.62 | COC1COc2c(S(N)(=O)=NC(=O)Nc3c4c(c(F)c5c3CCC5)CCC4)cnn2C1 (single isomer, unassigned) [Example 31] |  | > 10 | 0.02 |  | 
18 |  | 0.89 | 1.6 | CN(C)C1COc2c(S(N)(=O)=NC(=O)Nc3c4c(cc5c3CCC5)CCC4)cnn2C1 (single isomer, unassigned) [Example 33] | 0.002 | > 10 |  |  | 
19 | < 0.1 |  |  | CO[C@@H]1COc2c(S(=N)(=O)NC(=O)Nc3c4c(c(F)c5c3CCC5)CCC4)cnn2C1 (stereo partly drawn) [drawing 666] | < 0.1 |  |  |  | IC50 [5, 11]: > 10 µM
20 | 0.1 to 1 |  |  | CO[C@@H]1COc2c(S(=N)(=O)NC(=O)Nc3c4c(cc5c3CCC5)CCC4)cnn2C1 (stereo partly drawn) [drawing 667] | 0.1 to 1 |  |  |  | IC50 [5, 11]: > 10 µM
21 | < 0.1 |  |  | CO[C@@H]1COc2c(S(=N)(=O)NC(=O)Nc3c4c(cc5c3CCC5)CCC4)cnn2C1 (stereo partly drawn) [drawing 668] |  |  | < 0.1 | > 10 | IC50 [2]: < 0.1 µM; IC50 ([7]; read-out: Kupffer TNF α IC50): > 10 µM; IC50 ([4]; read-out: Kupffer IL-β B IC50): < 0.1 µM
22 | < 0.1 |  |  | CN[C@@H]1COc2c(S(=N)(=O)NC(=O)Nc3c4c(cc5c3CCC5)CCC4)cnn2C1 (stereo partly drawn) [drawing 674] |  |  | < 0.1 | > 10 | IC50 [2]: < 0.1 µM; IC50 ([7]; read-out: Kupffer TNF α IC50): > 10 µM; IC50 ([4]; read-out: Kupffer IL-β B IC50): < 0.1 µM
23 | < 0.1 |  |  | CN(C)[C@@H]1COc2c(S(=N)(=O)NC(=O)Nc3c4c(cc5c3CCC5)CCC4)cnn2C1 (stereo partly drawn) [drawing 682] |  |  | < 0.1 | > 10 | 
